Data taken from US8710233B2 (Gruenenthal GmbH, priority 2005, dated 2014).

Key:
[1] = target: T1, vanilloid receptor (VR1) (Homo sapiens, UniProt Q8NER1); experiment: FLIPR Ca2+ influx assay on CHO K1 cells transfected with the VR1 gene (pharmacological method II); format: cell-based; details: table 4; capsaicin; read-out: Ki (human) Cap.
T1 construct: expressed in transfected cells; host or cells: CHO K1 cells (ECACC), stably transfected

[2] = target: VR1/TRPV1 receptor (Homo sapiens, UniProt Q8NER1); experiment: IC50 (human) after pH stimulus; format: cell-based; details: for IC50: table 4; for inhibition at 1 µM / inhibition in percent, IC50 (human) after pH stimulus: ne = no effect, @ 1 μM
Sequence of VR1/TRPV1 receptor (Q8NER1 whole entry): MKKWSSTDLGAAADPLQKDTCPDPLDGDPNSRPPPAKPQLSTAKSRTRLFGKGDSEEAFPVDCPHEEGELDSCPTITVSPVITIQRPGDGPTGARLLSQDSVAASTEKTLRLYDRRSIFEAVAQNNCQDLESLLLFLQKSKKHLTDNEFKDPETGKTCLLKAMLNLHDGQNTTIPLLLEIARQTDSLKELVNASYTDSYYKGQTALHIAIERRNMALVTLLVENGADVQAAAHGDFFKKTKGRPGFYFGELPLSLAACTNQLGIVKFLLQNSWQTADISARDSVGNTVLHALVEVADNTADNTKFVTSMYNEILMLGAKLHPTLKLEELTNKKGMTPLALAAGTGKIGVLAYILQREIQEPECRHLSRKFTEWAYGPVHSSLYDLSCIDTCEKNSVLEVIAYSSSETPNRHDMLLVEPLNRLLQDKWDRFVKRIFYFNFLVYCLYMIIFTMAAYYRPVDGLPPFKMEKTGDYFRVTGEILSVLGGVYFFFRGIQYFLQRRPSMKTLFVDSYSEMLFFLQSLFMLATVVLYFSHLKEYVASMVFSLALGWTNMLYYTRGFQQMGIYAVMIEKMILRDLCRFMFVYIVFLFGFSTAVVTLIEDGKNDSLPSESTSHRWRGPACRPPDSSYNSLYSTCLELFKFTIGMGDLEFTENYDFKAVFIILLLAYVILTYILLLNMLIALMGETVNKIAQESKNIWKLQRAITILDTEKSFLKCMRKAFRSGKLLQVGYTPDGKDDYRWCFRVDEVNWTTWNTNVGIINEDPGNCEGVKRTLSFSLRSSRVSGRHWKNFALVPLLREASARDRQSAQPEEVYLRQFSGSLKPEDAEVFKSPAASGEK

[3] = read-out: inhibition in percent, IC50 (human) after pH stimulus

T1 sequence (Q8NER1 whole entry): as above

| Ki [1] | IC50 [2] | inhibition at 1 µM [2, 3] | inhibition at 5 µM ([2]; @ 5 μM, read-out: inhibition in percent, IC50 (human) after pH stimulus) | inhibition in percent, IC50 (human) after pH stimulus [2] | SMILES |
| --- | --- | --- | --- | --- | --- |
| 2.1 nM | 59.5 nM | – | – | – | CCC/C=C\c1nc(C(F)(F)F)ccc1CNC(=O)C(C)c1ccc(NS(C)(=O)=O)c(F)c1 (centres unmarked) [Example 300, 2-(3-fluoro-4-methylsulfonamido-phenyl)-N-(2-pent-1-enyl-6-trifluoromethyl-pyridin-3-ylmethyl)-propionamide] |
| 1 nM | 43 nM | – | – | – | CC/C=C\COc1nc(C(F)(F)F)ccc1CNC(=O)C(C)c1ccc(NS(C)(=O)=O)c(F)c1 (centres unmarked) [Example 299, 2-(3-fluoro-4-methylsulfonamido-phenyl)-N-(2-pent-2-enyloxy-6-trifluoromethyl-pyridin-3-ylmethyl)-propionamide] |
| 0.6 nM | 43.4 nM | – | – | – | CC(C(=O)NCc1ccc(C(F)(F)F)nc1C1CCCCC1)c1ccc(NS(C)(=O)=O)c(F)c1 (centres unmarked) [Example 291, N-(2-cyclohexyl-6-trifluoromethyl-pyridin-3-ylmethyl)-2-(3-fluoro-4-methylsulfonamido-phenyl)-propionamide] |
| 9.7 nM | 462 nM | – | – | – | CCOCCCOc1nc(C(F)(F)F)ccc1CNC(=O)C(C)c1ccc(NS(C)(=O)=O)c(F)c1 (centres unmarked) [Example 361, N-[2-(3-ethoxy-propoxy)-6-trifluoromethyl-pyridin-3-ylmethyl]-2-(3-fluoro-4-methylsulfonamido-phenyl)-propionamide] |

Further lines, the compound ahead of its results:

| SMILES | Ki [1] | IC50 [2] | inhibition at 1 µM [2, 3] | inhibition at 5 µM ([2]; @ 5 μM, read-out: inhibition in percent, IC50 (human) after pH stimulus) | inhibition in percent, IC50 (human) after pH stimulus [2] |
| --- | --- | --- | --- | --- | --- |
| CC(C(=O)NCc1cnc(C(F)(F)F)cc1-c1ccccc1)c1ccc(NS(C)(=O)=O)c(F)c1 (centres unmarked) [Example 292, 2-(3-fluoro-4-methylsulfonamido-phenyl)-N-(4-phenyl-6-trifluoromethyl-pyridin-3-ylmethyl)-propionamide] | 32.7 nM | – | 6% | 63% | – |
| COc1nc(C(C)(C)C)ccc1CNC(=O)C(C)c1ccc(NS(C)(=O)=O)c(F)c1 (centres unmarked) [Example 372, N-((6-tert-butyl-2-methoxypyridin-3-yl)methyl)-2-(3-fluoro-4-(methylsulfonamido)phenyl)propanamide] | 14.3 nM | – | 52% | – | – |
| CC(C(=O)NCc1ccc(C(F)(F)F)nc1-c1ccc(N(C)C)cc1)c1ccc(NS(C)(=O)=O)c(F)c1 (centres unmarked) [Example 308, N-[2-(4-dimethylamino-phenyl)-6-trifluoromethyl-pyridin-3-ylmethyl]-2-(3-fluoro-4-methylsulfonamido-phenyl)-propionamide] | 3.2 nM | 414 nM | – | – | – |
| CC(C(=O)NCc1ccc(C(F)(F)F)nc1C#Cc1ccccc1)c1ccc(NS(C)(=O)=O)c(F)c1 (centres unmarked) [Example 354, 2-(3-fluoro-4-methylsulfonamido-phenyl)-N-(2-phenylethynyl-6-trifluoromethyl-pyridin-3-ylmethyl)-propionamide] | 0.8 nM | 85 nM | – | – | – |
| CC(=O)C1(c2ccccc2)CCN(c2nc(C(F)(F)F)ccc2CNC(=O)C(C)c2ccc(NS(C)(=O)=O)c(F)c2)CC1 (centres unmarked) [Example 304, N-(4-acetyl-4-phenyl-6′-trifluoromethyl-3,4,5,6-tetrahydro-2H-[1,2′]bipyridinyl-3′-ylmethyl)-2-(3-fluoro-4-methylsulfonamido-phenyl)-propionamide] | 0.71 nM | 35.4 nM | – | – | – |
| CC(C(=O)NCc1ccc(C(F)(F)F)nc1-c1ccc2c(c1)OCO2)c1ccc(NS(C)(=O)=O)c(F)c1 (centres unmarked) [Example 266, N-(2-benzo[1,3]dioxol-5-yl-6-trifluoromethyl-pyridin-3-ylmethyl)-2-(3-fluoro-4-methylsulfonamido-phenyl)-propionamide] | 3.4 nM | – | – | – | ne @ 1 μM |
| Cc1ccc(CNC(=O)C(C)c2ccc(NS(C)(=O)=O)c(F)c2)c(N2CCC(C)CC2)n1 (centres unmarked) [Example 316, N-(4,6′-dimethyl-3,4,5,6-tetrahydro-2H-[1,2′]bipyridinyl-3′-ylmethyl)-2-(3-fluoro-4-methylsulfonamido-phenyl)-propionamide] | 72.1 nM | – | – | – | ne @ 1 μM |
